One may read the MIC as the lowest concentration that inhibits growth of the organism. Read a high MIC as a less susceptible organism.

The test system of test [1] is Streptococcus pyogenes (ATCC 8668). The test is described as follows: Mouse protection test against wild type Streptococcus pyogenes. In kind it is in vivo, Streptococcus pyogenes; female CD-1 mice. As to conditions: for Protective % / Number of Alive: repeated at 4 hours, 7 days; for Number of Alive: of 5 mice. An excerpt: The mouse protection test is an industry standard for measuring the efficacy of a test compound in vivo [for examples of this model see J. J. Clement, et al., Antimicrobial Agents and Chemotherapy, 38 (5), 1071-1078, (1994)]. As exemplified below, this test was used to show the in vivo efficacy of the compounds of the present invention against bacteria.
The in vivo antibacterial activity of compound X was established by infecting female CD-1 mice (Charles River Lab, Massachusettes) weighing 20-24 g intraperitoneally with Streptococcus pyogenes inoculum. The inoculum was prepared from Streptococcus pyogenes (ATCC 8668) which was cultured in brain heart infusion broth (Baltimore Biological Laboratories,Maryland) at 37° C. for 18 hr, and then 0.1 ml of the overnight culture was diluted with the medium to 5.0 ml for reading its OD at 600 nm (0.017). The turbidity of a 0.5 McFarland standard is equivalent to OD600 0.1, or 10^8 cfu/ml. Then, 8×10^5 cfu of the bacteria (940 μl of 1:1000 overnight culture) was added to 20 ml of phosphate buffered saline (Sigma P-0261 ) containing 5% hog gastric mucin (Sigma M-2378). All animals were injected with 0.5 ml of the inoculum, equivalent to 2×10^4 cfu/mouse which is the dose causing ~100% death of the animals without treatment.
Compound X (50 mg) was dissolved in 5.0 ml of 0.05M Tris.HCl (pH 8.8) to give a solution of 10 mg/ml. This solution was serially diluted with 0.05 M Tris.HCl by 5-fold (1.0 ml to 5.0 ml) to give 2, 0.4 and 0.08 mg/ml solutions. The known antibiotic erythromycin (Sigma E-6376, in phosphate buffered saline, 1 mg/ml, pH 7.0) was used as a positive control. All the solutions were filtered with 0.2 μm Nalgene syringe filter. Immediately after the bacterial inoculation, group 1 animals were subcutaneously (sc) injected with 0.05M Tris.HCl (no antibiotic) and groups 2 to 5 were given compound X sc at 0.8, 4, 20, and 100 mg/kg, respectively. Group 6 animals received erythromycin sc at 10 mg/kg. These injections were repeated once at 4 hours after the inoculation for the respective groups. The injection volume at each time was 10 ml per kilogram of body weight. The 50% protective dose (PD50) is calculated on the basis of the number of mice surviving 7 days after inoculation.

Test [2] has as its system S. pyogenes ATCC 8668. The test is described as follows: Whole cell antimicrobial screen, MIC. In kind it is cell-based. As to conditions: Streptococcus pyogenes, ATCC8668. The essentials:
(§1)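 Broth microdilution per NCCLS M7-A3: 2-fold compound dilutions (0.1 μg/mL-500 μg/mL final, DMSO ≤1%) incubated with 5×10^4 cells in appropriate medium overnight at 30° C.-37° C. Growth read as optical density; MIC taken as the lowest concentration inhibiting growth.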

Test [3] concerns S. epidermidis ATCC 33501. Description: Whole cell antimicrobial screen, MIC. In kind it is cell-based. Conditions: Staphylococcus epidermidis, ATCC33501. The gist of the method: as §1
Test [4] relates to S. aureus ATCC 14154. The test is described as follows: Whole cell antimicrobial screen, MIC. Format: cell-based. Conditions: Staphylococcus aureus, ATCC14154. The gist of the method:
as §1

Test [5] has as its system B. subtilis ATCC 6633. The test is described as follows: Whole cell antimicrobial screen, MIC. As to conditions: Bacillus subtilis, ATCC6633. In kind it is cell-based. The essentials: as §1
Test [6] concerns S. saprophyticus ATCC 35552. The test is described as follows: Whole cell antimicrobial screen, MIC. Format: cell-based. Conditions: Staphylococcus saprophyticus, ATCC35552. The essentials: as §1
The test system of test [7] is K. pneumonia ATCC 4352. The test is described as follows: Whole cell antimicrobial screen, MIC. In kind it is cell-based. As to conditions: Klebsiella pneumoniae, ATCC4352. The gist of the method:
as §1

For test [8], the system named is S. pneumonia ATCC 49619. The test is described as follows: Whole cell antimicrobial screen, MIC. Format: cell-based. The essentials:
as §1

Test [9] relates to M. catarrhalis ATCC 25240. The test is described as follows: Whole cell antimicrobial screen, MIC. Format: cell-based. As to conditions: Moraxella catarrhalis, ATCC25240. The essentials:
as §1

Test [10] deals with C. albicans ATCC 10231. Description: Whole cell antimicrobial screen, MIC. Format: cell-based. As to conditions: Candida albicans, ATCC10231. The gist of the method:
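Optical density after overnight growth at 30° C.-37° C. defined the MIC as the lowest inhibitory compound concentration. Test range was 0.1 μg/mL-500 μg/mL in 2-fold steps against 5×10^4 cells.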

Test [11] deals with E. faecalis ATCC 33011. Description: Whole cell antimicrobial screen, MIC. Format: cell-based. Conditions: Enterococcus faecalis, ATCC33011. The gist of the method: as §1

Values after ≈ are worked out from the molar mass of the structure shown.

`CC[C@H](C)[C@H](N)C(=O)NS(=O)(=O)OC[C@H]1O[C@@H](CCn2nnc(-c3ccc(Oc4ccccc4)cc3)n2)[C@H](O)[C@@H]1O` [Compound X, [S-(R*,R*)]-3,6-anhydro-1,2-dideoxy-1-[5-(4-phenoxyphenyl)-2H-tetrazol-2-yl]-D-allo-heptitol 7-(2-amino-3-methyl-1-oxopentyl)sulfamate]: the Protective % in [1] (4 mg/kg sc) came out at 0%; in test [1] (20 mg/kg sc), 40%; in [1] (100 mg/kg sc) it was 100%. Moreover, the results for the “Number of Alive” value in [1] (4 mg/kg sc), in [1] (20 mg/kg sc) and in test [1] (100 mg/kg sc) were 0, 2 and 5, respectively. The ED50 in [1] (Streptococcus pyogenes, ATCC8668, 168 h, sc, mice surviving 7 days after inoculation, wild type, read-out: PD50 (50% protective dose)) came out at 21.1 mg/kg. Also, the MIC is 0.5 µg/mL (≈ 0.847 µM) in test [2]; 2 µg/mL (≈ 3.39 µM) in test [3]; 25 µg/mL (≈ 42.3 µM) in test [4]; 10 µg/mL (≈ 16.9 µM) in test [5]; 5 µg/mL (≈ 8.47 µM) in test [6]; 50 µg/mL (≈ 84.7 µM) in [7]. In addition, the MIC in test [8] was 25 µg/mL (≈ 42.3 µM); in test [9], 25 µg/mL (≈ 42.3 µM); in test [10], above 500 µg/mL; in test [11], 300 µg/mL (≈ 508 µM).
